Results on 18 molecules are retold here after patent US12344603B2 (Genentech, Inc., priority 2020, dated 2025).

Broadly, the IC50 is the concentration that gives 50% inhibition. High values mean weaker potency, low ones greater potency.

Sequence of IRE1α (O75460 547-977 D688N): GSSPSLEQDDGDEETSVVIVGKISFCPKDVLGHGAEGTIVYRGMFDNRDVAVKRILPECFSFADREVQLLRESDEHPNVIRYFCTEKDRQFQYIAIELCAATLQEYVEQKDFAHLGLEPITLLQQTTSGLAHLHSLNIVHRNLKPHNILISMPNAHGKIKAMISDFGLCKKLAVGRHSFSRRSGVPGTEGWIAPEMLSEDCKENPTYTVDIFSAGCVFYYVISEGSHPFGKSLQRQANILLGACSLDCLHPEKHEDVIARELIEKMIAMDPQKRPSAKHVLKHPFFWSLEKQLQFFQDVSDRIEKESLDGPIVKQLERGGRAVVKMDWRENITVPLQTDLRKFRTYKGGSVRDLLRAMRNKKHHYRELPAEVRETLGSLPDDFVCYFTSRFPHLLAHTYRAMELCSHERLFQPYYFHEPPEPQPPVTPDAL

The assay concerns the target IRE1α (Homo sapiens (Human), UniProt O75460, D688N). The experiment in a line: IRE1α TR-FRET competition binding assay (IRE1α HTRF). The following applies: TR-FRET competition binding to kinase domain of IRE1α. The essentials:
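Kinase domain (0.25 nM) pre-bound to 2 nM Eu anti-His antibody for 1 h at 4° C in HEPES pH 7.5/MgCl2/Brij 35/DTT/gamma globulin buffer, then mixed with compounds and 2 nM Alexa 647 ATP-competitive probe. 1 h at room temperature; probe displacement read as TR-FRET (Ex 347 nm, Em 665/615 nm).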
In turn, `CC(C)n1c(=O)c(-c2ccc(NS(=O)(=O)CC3CC4(C3)CC4(F)F)c(F)c2)nc2cnc(N[C@H]3CC[C@H](N(C)C)CC3)nc21` (stereo partly drawn) [Example 262, 1-(2,2-Difluorospiro[2.3]hexan-5-yl)-N-[4-[2-[[4-(dimethylamino)cyclohexyl]amino]-8-isopropyl-7-oxo-pteridin-6-yl]-2-fluoro-phenyl]methanesulfonamide] registered an IC50 of 0.3 nM.

`CC(C)n1c(=O)c(-c2ccc(NS(=O)(=O)CC3CC4C(C3)C4(F)F)c(F)c2)nc2cnc(N[C@H]3CC[C@H](N(C)C)CC3)nc21` (stereo partly drawn) [Example 265, 1-(6,6-Difluoro-3-bicyclo[3.1.0]hexanyl)-N-[4-[2-[[4-(dimethylamino)cyclohexyl]amino]-8-isopropyl-7-oxo-pteridin-6-yl]-2-fluorophenyl]methanesulfonamide] came in with an IC50 of 0.2 nM.

`CC(C)n1c(=O)c(-c2ccc(NS(=O)(=O)CC3(C(F)F)CCCC3)c(F)c2)nc2cnc(N[C@H]3CC[C@H](N(C)C)CC3)nc21` [Example 266, 1-[1-(Difluoromethyl)cyclopentyl]-N-[4-[2-[[4-(dimethylamino)cyclohexyl]amino]-8-isopropyl-7-oxo-pteridin-6-yl]-2-fluoro-phenyl]methanesulfonamide]: the IC50 was 0.2 nM.

In turn, `CC(C)n1c(=O)c(-c2ccc(NS(=O)(=O)CC3CCCC3)c(F)c2)nc2cnc(N[C@H]3CC[C@H](N(C)C)CC3)nc21` [Example 267, 1-Cyclopentyl-N-[4-[2-[[4-(dimethylamino)cyclohexyl]amino]-8-isopropyl-7-oxo-pteridin-6-yl]-2-fluoro-phenyl]methanesulfonamide] returned a half-inhibitory concentration (IC50) of 0.1 nM.

In turn, `CC(C)n1c(=O)c(-c2ccc(NS(=O)(=O)CC3Cc4ccccc4C3)c(F)c2)nc2cnc(N[C@H]3CC[C@H](N(C)C)CC3)nc21` [Example 268, N-[4-[2-[[4-(Dimethylamino)cyclohexyl]amino]-8-isopropyl-7-oxo-pteridin-6-yl]-2-fluoro-phenyl]-1-indan-2-yl-methanesulfonamide] displayed an IC50 of 0.1 nM.

As to `CC(C)n1c(=O)c(-c2ccc(NS(=O)(=O)CC3CCCCC3)c(F)c2)nc2cnc(N[C@H]3CC[C@H](N(C)C)CC3)nc21` [Example 269, 1-Cyclohexyl-N-[4-[2-[[4-(dimethylamino)cyclohexyl]amino]-8-isopropyl-7-oxo-pteridin-6-yl]-2-fluoro-phenyl]methanesulfonamide], the IC50 worked out at 0.2 nM.

For `CC(C)n1c(=O)c(-c2ccc(NS(=O)(=O)CC34CCC(CC3)C4)c(F)c2)nc2cnc(N[C@H]3CC[C@H](N(C)C)CC3)nc21` [Example 270, N-[4-[2-[[4-(Dimethylamino)cyclohexyl]amino]-8-isopropyl-7-oxo-pteridin-6-yl]-2-fluoro-phenyl]-1-norbornan-1-yl-methanesulfonamide], the IC50 stood at 0.3 nM.

As for `CC(C)n1c(=O)c(-c2ccc(NS(=O)(=O)CC3CCC(F)(F)CC3)c(F)c2)nc2cnc(N[C@H]3CC[C@H](N(C)C)CC3)nc21` [Example 271, 1-(4,4-Difluorocyclohexyl)-N-[4-[2-[[4-(dimethylamino)cyclohexyl]amino]-8-isopropyl-7-oxo-pteridin-6-yl]-2-fluoro-phenyl]methanesulfonamide], the IC50 came to 0.2 nM.

Turning to `CC(C)n1c(=O)c(-c2ccc(NS(=O)(=O)[C@@H]3C[C@H]3c3ccccc3)c(F)c2)nc2cnc(N[C@H]3CC[C@H](N(C)C)CC3)nc21` [Example 274, (1R,2S)—N-(4-(2-(((1r,4r)-4-(Dimethylamino)cyclohexyl)amino)-8-isopropyl-7-oxo-7,8-dihydropteridin-6-yl)-2-fluorophenyl)-2-phenylcyclopropane-1-sulfonamide], the IC50 turned out to be 0.2 nM.

In turn, `CC(C)n1c(=O)c(-c2ccc(NS(=O)(=O)C3C4CCCCC43)c(F)c2)nc2cnc(N[C@H]3CC[C@H](N(C)C)CC3)nc21` (stereo partly drawn) [Example 275, N-[4-[2-[[4-(Dimethylamino)cyclohexyl]amino]-8-isopropyl-7-oxo-pteridin-6-yl]-2-fluoro-phenyl]norcarane-7-sulfonamide] registered an IC50 of 0.4 nM.

In turn, `CC(C)n1c(=O)c(-c2ccc(NS(=O)(=O)C3CCC3)c(F)c2)nc2cnc(N[C@H]3CC[C@H](N(C)C)CC3)nc21` [Example 276, N-[4-[2-[[4-(Dimethylamino)cyclohexyl]amino]-8-isopropyl-7-oxo-pteridin-6-yl]-2-fluoro-phenyl]cyclobutanesulfonamide] showed an IC50 of 0.9 nM.

Turning to `CC(C)n1c(=O)c(-c2ccc(NS(=O)(=O)C3CC4(CCC4)C3)c(F)c2)nc2cnc(N[C@H]3CC[C@H](N(C)C)CC3)nc21` [Example 277, N-[4-[2-[[4-(Dimethylamino)cyclohexyl]amino]-8-isopropyl-7-oxo-pteridin-6-yl]-2-fluoro-phenyl]spiro[3.3]heptane-2-sulfonamide], the IC50 turned out to be 0.2 nM.

`CC(C)n1c(=O)c(-c2ccc(NS(=O)(=O)CC3CCC3)c(F)c2)nc2cnc(N[C@H]3CC[C@H](N(C)C)CC3)nc21` [Example 278, 1-Cyclobutyl-N-[4-[2-[[4-(dimethylamino)cyclohexyl]amino]-8-isopropyl-7-oxo-pteridin-6-yl]-2-fluoro-phenyl]methanesulfonamide] displayed an IC50 of 0.2 nM.

As for `CC(C)n1c(=O)c(-c2ccc(NS(=O)(=O)CC3CC(F)(F)C3)c(F)c2)nc2cnc(N[C@H]3CC[C@H](N(C)C)CC3)nc21` [Example 279, 1-(3,3-Difluorocyclobutyl)-N-[4-[2-[[4-(dimethylamino)cyclohexyl]amino]-8-isopropyl-7-oxo-pteridin-6-yl]-2-fluoro-phenyl]methanesulfonamide], the IC50 amounted to 0.3 nM.

In turn, `CC(C)n1c(=O)c(-c2ccc(NS(=O)(=O)C3CCC(F)(F)CC3)c(F)c2)nc2cnc(N[C@H]3CC[C@H](N(C)C)CC3)nc21` [Example 280, N-[4-[2-[[4-(Dimethylamino)cyclohexyl]amino]-8-isopropyl-7-oxo-pteridin-6-yl]-2-fluoro-phenyl]-4,4-difluoro-cyclohexanesulfonamide] yielded an IC50 of 0.2 nM.

For `CC(C)n1c(=O)c(-c2ccc(NS(=O)(=O)C3CC4CCC3C4)c(F)c2)nc2cnc(N[C@H]3CC[C@H](N(C)C)CC3)nc21` (stereo partly drawn) [Example 281, N-(4-(2-(((1r, 4r)-4-(dimethylamino)cyclohexyl)amino)-8-isopropyl-7-oxo-7,8-dihydropteridin-6-yl)-2-fluorophenyl)bicyclo[2.2.1]heptane-2-sulfonamide], the IC50 came to 0.5 nM.

As for “N-(2,3,6-trifluoro-4-(8-isopropyl-2-((4-((2-methoxyethyl)(methyl)amino)cyclohexyl)amino)-7-oxo-7,8-dihydropyrido[2,3-d]pyrimidin-6-yl)phenyl)propane-1-sulfonamide [Compound 101A]”, the IC50 turned out to be 0.35 nM.

Take “N-(2,3,6-trifluoro-4-(8-isopropyl-2-((4-((2-methoxyethyl)(methyl)amino)cyclohexyl)amino)-7-oxo-7,8-dihydropyrido[2,3-d]pyrimidin-6-yl)phenyl)propane-1-sulfonamide [Compound 101B]”: the IC50 turned out to be 120 nM.
